According to paper PMC11603275, “Synthesis and Antimicrobial Evaluation of New 1,2,4-Triazolo[1,5-a]pyrimidine-Based Derivatives as Dual Inhibitors of Bacterial DNA Gyrase and DHFR” (ACS Omega, 2024):
In brackets after ≈: the same amount, converted by molar mass. Like-named read-outs stand apart in the source and are kept apart here.

Columns and labels:
E. coli [1] = test: MIC assay, 2-fold serial dilution in 96-well microtiter plate; assay type: cell-based, Escherichia coli (ATCC 11775)
Description: (§1) The outcomes of this in vitro assay test align with the results of the antimicrobial sensitivity test.
(§2) Appendix A (Supplementary File) provides experimental details.
(§3) In 96-well microtiter plates and […] of fresh bacterial culture of a single McFarland unit overnight, a double serial dilution of each compound […] in sterile standard saline were prepared to every single source well. […] The plates were incubated at 37 °C overnight. As an indicator of bacterial growth, […] of p-iodonitrotetrazolium violet (INT) was added to each well and incubated at 37 °C for 30 min. […] The colorless tetrazolidium salt acts as an electron accepter and is reduced to a red colored formazan product by biological activity organisms. Where bacterial growth was inhibited, the solution in the well remained clear after incubation with INT.

B. subtilis [2] = test: Modified disk diffusion, inhibition zone; conditions: B. subtilis (G+)
S. aureus [3] = test: Minimum bactericidal concentration (MBC) assay; assay type: cell-based, Staphylococcus aureus
Description: (§4) The MBC differs from the MIC. […] Unlike the MBC, which leads to mortality, the MIC hinders bacterial growth without causing death.[41] The common expression for MBC is MBC50, signifying the antibiotic concentration that eliminates 50% of the initial bacterial population.[42]

P. aeruginosa [4] = test: MIC assay, 2-fold serial dilution in 96-well microtiter plate; assay type: cell-based, Pseudomonas aeuroginosa (ATCC 10145)
Description: as §1, §2, §3

B. subtilis [5] = test: Minimum bactericidal concentration (MBC) assay; assay type: cell-based, Bacillus subtilis
Description: as §4

B. subtilis [6] = test: MIC assay, 2-fold serial dilution in 96-well microtiter plate; assay type: cell-based, Bacillus subtilis (ATCC 6051)
Description: as §1, §2, §3

E. coli [7] = test: Modified disk diffusion, inhibition zone; conditions: E. coli (G-)
P. aeruginosa [8] = test: Modified disk diffusion, inhibition zone; conditions: P. aeruginosa (G-)
S. aureus [9] = test: MIC assay, 2-fold serial dilution in 96-well microtiter plate; assay type: cell-based, Staphylococcus aureus (ATCC 12600)
Description: as §1, §2, §3

E. coli [10] = test: Minimum bactericidal concentration (MBC) assay; assay type: cell-based, Escherichia coli
Description: as §4

[11] = tested on: Gram-positive and Gram-negative bacteria (B. subtilis, S. aureus, E. coli, P. aeruginosa); test: Disk diffusion, inhibition zones summarised over the tested bacterial strains; conditions: over the four tested bacterial strains
P. aeruginosa [12] = test: Minimum bactericidal concentration (MBC) assay; assay type: cell-based, Pseudomonas aeuroginosa
Description: as §4

Gram-positive bacteria = test: MBC summarised over Gram-positive bacteria; assay type: cell-based
Description: as §4

tested bacteria = test: MIC summarised over the tested bacteria (abstract); assay type: cell-based; conditions: read-out: MIC values
Description: as §1, §3

DNA gyrase = target: DNA gyrase; design: method as in PMID 31711767; conditions: cited from earlier work
[13] = target: DNA, Gram-positive strains; design: method as in ref 29 = [29]; Ghaly M. A.; El-Bendary E. R.; Shehata I. A.; Bayomi S. M.; Habib E. Synthesis, antimicrobial activity, DNA-binding affinity and molecular docking of certain 1, 2, 4-triazolo [1, 5-a] pyrimidines; conditions: cited from earlier work
[14] = target: DNA, Gram-negative strains; design: method as in ref 29 = [29]; Ghaly M. A.; El-Bendary E. R.; Shehata I. A.; Bayomi S. M.; Habib E. Synthesis, antimicrobial activity, DNA-binding affinity and molecular docking of certain 1, 2, 4-triazolo [1, 5-a] pyrimidines; conditions: cited from earlier work
[15] = tested on: Gram-positive and Gram-negative bacterial strains; design: method as in ref 29 = [29]; Ghaly M. A.; El-Bendary E. R.; Shehata I. A.; Bayomi S. M.; Habib E. Synthesis, antimicrobial activity, DNA-binding affinity and molecular docking of certain 1, 2, 4-triazolo [1, 5-a] pyrimidines; conditions: cited from earlier work
[16] = target: S. aureus topoisomerase IV; design: method as in ref 44 (a number printed in a supplementary file, which may have a reference list of its own: not looked up in the article's list); conditions: internal standard value given in the method; cited from earlier work
E. coli DNA gyrase = target: T1, E. coli DNA gyrase (Escherichia coli, UniProt P0AES6); test: DNA gyrase inhibitory (supercoiling) assay; assay type: biochemical
T1 construct: purchased Inspiralis
Description: (§5) IC50 values were determined using seven different inhibitor concentrations and then calculated using the GraphPad Prism 6.0 software.
All the final compounds were tested for E. coli DNA gyrase inhibitory activity in a supercoiling assay. Activities were determined on streptavidin-coated 96-well microtiter plates from Thermo scientific Pierce. […] After washing off the unbound oligonucleotide, the enzyme test was performed. […] After that, the TF buffer (50 mM NaOAc with pH 5.0, 50 mM NaCl and 50 mM MgCl2) was added to terminate the enzymatic reaction. After additional incubation for 30 min at rt, during which biotin-oligonucleotide-plasmid triplex was formed, the unbound plasmid was washed off using TF buffer and SybrGOLD in T10 buffer (10 mM Tris HCl with pH 8.0 and 1 mM EDTA) was added. […] Initial screening was done at 100 or 10 μM concentration of inhibitors. […] GraphPad Prism software was used to calculate the IC50 values. The result is given as the average value of three independent measurements.

A. flavus [17] = test: Antifungal MIC assay, 2-fold serial dilution; assay type: cell-based, Aspergillus flavus
C. albicans [18] = test: Modified disk diffusion, inhibition zone; conditions: C. albicans (fungi)
DHFR E. coli = target: T2, DHFR E. coli (Escherichia coli, UniProt P0ABQ4); test: DHFR inhibitory assay; assay type: biochemical
T2 construct: purchased Inspiralis
Description: as §5

A. flavus [19] = test: Modified disk diffusion, inhibition zone; conditions: A. flavus (fungi)
C. albicans [20] = test: Antifungal MIC assay, 2-fold serial dilution; assay type: cell-based, Candida albicans
S. aureus [21] = test: Modified disk diffusion, inhibition zone; conditions: S. aureus (G+)
[22] = tested on: A. flavus and C. albicans; test: Disk diffusion, inhibition zones summarised over the fungal species; conditions: against A. flavus and C. albicans
tested fungal species = test: MIC summarised over the tested fungal species (abstract); assay type: cell-based; conditions: range over tested fungal species
[23] = Escherichia coli, read-out: MIC
[24] = Staphylococcus aureus, read-out: MBC
[25] = Pseudomonas aeruginosa, read-out: MIC
[26] = Bacillus subtilis, read-out: MBC
[27] = Bacillus subtilis, read-out: MIC
[28] = Staphylococcus aureus, read-out: MIC
[29] = Escherichia coli, read-out: MBC
[30] = Pseudomonas aeruginosa, read-out: MBC
[31] = Aspergillus flavus, read-out: MIC
[32] = Candida albicans, read-out: MIC

T2 sequence (P0ABQ4 whole entry): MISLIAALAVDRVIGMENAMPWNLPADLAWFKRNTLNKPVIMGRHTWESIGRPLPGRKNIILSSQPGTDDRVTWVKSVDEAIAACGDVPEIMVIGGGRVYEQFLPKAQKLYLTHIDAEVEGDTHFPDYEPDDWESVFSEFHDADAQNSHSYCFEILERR

SMILES | MIC (E. coli [1]; [23]) | Inhibition Zone (IZ) Diameter (B. subtilis [2]) | MBC (S. aureus [3]; [24]) | MIC (P. aeruginosa [4]; [25]) | MBC (B. subtilis [5]) | MBC (B. subtilis [5]; [26]) | MIC (B. subtilis [6]; [27]) | Inhibition Zone (IZ) Diameter (E. coli [7]) | Inhibition Zone (IZ) Diameter (P. aeruginosa [8]) | MIC (S. aureus [9]; [28]) | MBC (E. coli [10]) | MBC (E. coli [10]; [29]) | Inhibition Zone (IZ) Diameter [11] | MBC (P. aeruginosa [12]) | MBC (P. aeruginosa [12]; [30]) | MIC (A. flavus [17]; [31]) | Inhibition Zone (IZ) Diameter (A. flavus [19]) | MIC (C. albicans [20]; [32]) | other results
O=C(O)c1cn(C2CC2)c2cc(N3CCNCC3)c(F)cc2c1=O [Ciprofloxacin, reference compound] | 0.06 ± 0.004 µM (≈ 0.0199 µg/mL) | 40 mm/mL | 0.046 µM (≈ 0.0152 µg/mL) | 0.06 µM (≈ 0.0199 µg/mL) | 0.019 ± 0.001 µM (≈ 0.0063 µg/mL) | 0.019 µM (≈ 0.0063 µg/mL) | 0.01 µM (≈ 0.00331 µg/mL) | 40 mm/mL | 40 mm/mL | 0.03 ± 0.002 µM (≈ 0.00994 µg/mL) | 0.09 ± 0.006 µM (≈ 0.0298 µg/mL) | 0.09 µM (≈ 0.0298 µg/mL) | 40 mm | 0.09 ± 0.006 µM (≈ 0.0298 µg/mL) | 0.09 µM (≈ 0.0298 µg/mL) |  |  |  | MBC (S. aureus [3]): 0.045 ± 0.002 µM (≈ 0.0149 µg/mL); MIC (P. aeruginosa [4]): 0.06 ± 0.005 µM (≈ 0.0199 µg/mL); MIC (B. subtilis [6]): 0.01 ± 0.001 µM (≈ 0.00331 µg/mL); MBC (Gram-positive bacteria): 0.019 to 0.045 µM (≈ 0.0063 to 0.0149 µg/mL); MIC (tested bacteria): 10 to 90 µM (≈ 3.31 to 29.8 µg/mL)
O=C(NNC(=O)c1c[nH]c2ncnn2c1=O)c1ccccc1 [Compound IV] |  |  |  |  |  |  |  |  |  |  |  |  |  |  |  |  |  |  | IC50 (DNA gyrase): 680 nM
NNC(=O)c1c[nH]c2nc(N3CCCC3)nn2c1=O [IIIb] |  |  |  |  |  |  |  |  |  |  |  |  |  |  |  |  |  |  | IC50, DNA displacement experiment [13]: 61 µg/mL (≈ 232 µM); IC50, DNA displacement experiment [14]: 40 µg/mL (≈ 152 µM); MIC [15]: ≥ 2 µg/mL
CO[C@@H]1[C@@H](OC(N)=O)[C@@H](O)[C@H](Oc2ccc3c(O)c(NC(=O)c4ccc(O)c(CC=C(C)C)c4)c(=O)oc3c2C)OC1(C)C [Novobiocin] |  |  |  |  |  |  |  |  |  |  |  |  |  |  |  |  |  |  | IC50 [16]: 26700 nM
COc1ccc(-c2cc(-c3ccc(C)cc3)n3nc(-c4ccccc4)nc3n2)cc1 [Compound 9o, 5-(4-Methoxyphenyl)-2-phenyl-7-p-tolyl-1,2,4-triazolo[1,5-a]pyrimidine] | 0.051 µM (≈ 0.02 µg/mL) | 43 mm/mL | 0.046 µM (≈ 0.0181 µg/mL) | 0.053 µM (≈ 0.0208 µg/mL) | 0.032 ± 0.002 µM (≈ 0.0126 µg/mL) | 0.032 µM (≈ 0.0126 µg/mL) | 0.016 µM (≈ 0.00628 µg/mL) | 43 mm/mL | 42 mm/mL | 0.024 µM (≈ 0.00942 µg/mL) | 0.087 ± 0.006 µM (≈ 0.0341 µg/mL) | 0.087 µM (≈ 0.0341 µg/mL) | 42–45 mm | 0.084 ± 0.005 µM (≈ 0.033 µg/mL) | 0.084 µM (≈ 0.033 µg/mL) | 15.5 µM (≈ 6.08 µg/mL) | 35 mm/mL | 19.5 µM (≈ 7.65 µg/mL) | MIC (E. coli [1]): 0.051 ± 0.003 µM (≈ 0.02 µg/mL); MBC (S. aureus [3]): 0.046 ± 0.002 µM (≈ 0.0181 µg/mL); IC50 (E. coli DNA gyrase): 182 ± 10 nM; MIC (A. flavus [17]): 15.50 ± 1 µM (≈ 6.08 µg/mL); Inhibition Zone (IZ) Diameter (C. albicans [18]): 38 mm; MIC (P. aeruginosa [4]): 0.053 ± 0.004 µM (≈ 0.0208 µg/mL); folds less potent than ciprofloxacin as a bactericidal agent (MBC) (B. subtilis [5]): 1.7; MIC (B. subtilis [6]): 0.016 ± 0.001 µM (≈ 0.00628 µg/mL); times less effective than ciprofloxacin (MIC) (B. subtilis [6]): 1.6; IC50 (DHFR E. coli): 3900 ± 100 nM; MIC (C. albicans [20]): 19.50 ± 1 µM (≈ 7.65 µg/mL); MIC (S. aureus [9]): 0.024 ± 0.001 µM (≈ 0.00942 µg/mL); Inhibition Zone (IZ) Diameter (S. aureus [21]): 45
OC(Cn1cncn1)(Cn1cncn1)c1ccc(F)cc1F [Fluconazole, reference compound] |  |  |  |  |  |  |  |  |  |  |  |  |  |  |  | 11.5 µM (≈ 3.52 µg/mL) | 40 mm/mL | 17.5 µM (≈ 5.36 µg/mL) | Inhibition Zone (IZ) Diameter [22]: 40 mm; MIC (A. flavus [17]): 11.50 ± 1 µM (≈ 3.52 µg/mL); MIC (tested fungal species): 11.5 to 17.5 µM (≈ 3.52 to 5.36 µg/mL); MIC (C. albicans [20]): 17.50 ± 1 µM (≈ 5.36 µg/mL)
COc1ccc(CCc2nc3[nH]cc(C(=O)NN)c(=O)n3n2)cc1OC [IIIa] |  |  |  |  |  |  |  |  |  |  |  |  |  |  |  |  |  |  | IC50, DNA displacement experiment [13]: 61 µg/mL (≈ 170 µM); IC50, DNA displacement experiment [14]: 40 µg/mL (≈ 112 µM); MIC [15]: ≥ 2 µg/mL
COc1ccc(-c2cc(-c3ccc(Cl)cc3)n3nc(-c4ccccc4)nc3n2)cc1 [Compound 9n, 7-(4-Chlorophenyl)-5-(4-methoxyphenyl)-2-phenyl-1,2,4-triazolo[1,5-a]pyrimidine] | 0.065 ± 0.004 µM (≈ 0.0268 µg/mL) | 40 mm/mL | 0.065 ± 0.002 µM (≈ 0.0268 µg/mL) | 0.064 ± 0.005 µM (≈ 0.0264 µg/mL) | 0.049 ± 0.002 µM (≈ 0.0202 µg/mL) | 0.049 µM (≈ 0.0202 µg/mL) | 0.029 ± 0.002 µM (≈ 0.012 µg/mL) | 40 mm/mL | 40 mm/mL | 0.033 ± 0.002 µM (≈ 0.0136 µg/mL) | 0.093 ± 0.006 µM (≈ 0.0384 µg/mL) | 0.093 µM (≈ 0.0384 µg/mL) | approximately 40 mm | 0.094 ± 0.006 µM (≈ 0.0388 µg/mL) | 0.094 µM (≈ 0.0388 µg/mL) | 18.5 ± 1 µM (≈ 7.64 µg/mL) | 32 mm/mL | 21.9 ± 1 µM (≈ 9.04 µg/mL) | IC50 (E. coli DNA gyrase): 190 ± 11 nM; Inhibition Zone (IZ) Diameter (C. albicans [18]): 36 mm; folds less potent than ciprofloxacin as a bactericidal agent (MBC) (B. subtilis [5]): 2.6; times less effective than ciprofloxacin (MIC) (B. subtilis [6]): 3; IC50 (DHFR E. coli): 4600 ± 200 nM; Inhibition Zone (IZ) Diameter (S. aureus [21]): 41
